Assay results taken from patent US20080039408A1, “Use of Oxypurinol as an Inhibitor of Anti-Neoplastic Agent-Induced Cardiotoxicity” (priority 2004, published 2008).
Structures can show the parent of a compound that is named as a salt.

Legend:
[1] = test system: laboratory animals; settings: all laboratory animals tested; cited from earlier work
[2] = test system: patients; settings: 4-15 years after completion of chemotherapy; cited from earlier work
[3] = target: xanthine oxidase (Homo sapiens, UniProt P47989); settings: cited from earlier work
xanthine oxidase, sequence (P47989 whole entry, species assumed): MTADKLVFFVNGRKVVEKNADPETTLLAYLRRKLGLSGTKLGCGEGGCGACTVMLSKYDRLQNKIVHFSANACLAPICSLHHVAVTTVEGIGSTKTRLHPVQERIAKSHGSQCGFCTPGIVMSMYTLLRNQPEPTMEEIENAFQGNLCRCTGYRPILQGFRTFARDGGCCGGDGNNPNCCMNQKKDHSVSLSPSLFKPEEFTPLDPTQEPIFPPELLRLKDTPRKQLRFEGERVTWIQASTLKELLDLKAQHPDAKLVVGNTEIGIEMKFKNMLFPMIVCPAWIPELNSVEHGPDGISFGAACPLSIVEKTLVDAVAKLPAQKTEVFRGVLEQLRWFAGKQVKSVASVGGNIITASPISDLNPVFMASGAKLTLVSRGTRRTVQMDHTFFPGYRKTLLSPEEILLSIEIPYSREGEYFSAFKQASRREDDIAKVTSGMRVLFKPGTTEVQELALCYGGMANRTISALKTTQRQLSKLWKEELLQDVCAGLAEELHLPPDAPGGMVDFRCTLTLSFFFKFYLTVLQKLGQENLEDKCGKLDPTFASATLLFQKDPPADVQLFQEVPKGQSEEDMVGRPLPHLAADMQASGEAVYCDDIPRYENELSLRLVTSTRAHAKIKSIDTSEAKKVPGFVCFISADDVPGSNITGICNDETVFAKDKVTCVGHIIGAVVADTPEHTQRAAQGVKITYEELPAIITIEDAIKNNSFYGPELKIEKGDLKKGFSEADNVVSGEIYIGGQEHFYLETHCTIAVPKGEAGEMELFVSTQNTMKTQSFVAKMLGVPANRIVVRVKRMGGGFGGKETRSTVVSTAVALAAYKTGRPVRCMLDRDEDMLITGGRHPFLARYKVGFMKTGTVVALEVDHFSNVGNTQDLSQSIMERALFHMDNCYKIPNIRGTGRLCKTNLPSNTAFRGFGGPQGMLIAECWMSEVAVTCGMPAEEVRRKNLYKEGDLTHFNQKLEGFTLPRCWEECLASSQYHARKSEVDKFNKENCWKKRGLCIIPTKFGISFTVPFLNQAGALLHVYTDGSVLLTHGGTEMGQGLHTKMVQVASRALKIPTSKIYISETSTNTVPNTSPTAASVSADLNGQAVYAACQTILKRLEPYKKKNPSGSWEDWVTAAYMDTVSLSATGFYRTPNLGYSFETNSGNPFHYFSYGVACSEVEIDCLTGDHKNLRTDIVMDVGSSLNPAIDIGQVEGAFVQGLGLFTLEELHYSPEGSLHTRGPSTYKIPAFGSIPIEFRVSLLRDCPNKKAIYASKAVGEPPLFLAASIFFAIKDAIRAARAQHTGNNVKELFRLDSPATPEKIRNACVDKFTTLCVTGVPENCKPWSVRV

[4] = test system: Female CD1 mice
Procedure: Female CD1 mice, weighing 20-22 g, were obtained from Charles River with implanted jugular catheters. Prior to induction of doxorubicin cardiotoxicity, the animals were randomly divided into 2 groups: • Group 1: Treatment with Oxypurinol (n=15), 26 mg/dl in the drinking water, start 3 days prior to doxorubicin dose and continue to sacrifice. • Group 2: Treatment with Vehicle (Saline) (n=10), start 3 days prior to doxorubicin dose and continue to sacrifice.
For induction of doxorubicin cardiotoxicity, doxorubicin, dissolved in saline, was injected by IV through the jugular catheter twice a week (Monday and Thursday) ten times at dose 4 mg/kg/day. Between doses 4 and 5 there was a two weeks hiatus to allow recovery of bone marrow suppression.
Seventeen mice were included in the vehicle Group 2. Two mice had jugular catheters that were nonoperable and excluded at the outset. Fifteen mice were included in the drug Group 1.
Seven surviving vehicle Group 2 (control) animals were sacrificed and 11 surviving drug Group 1 mice were sacrificed.

Compound: C[C@@H](CN1CC(=O)NC(=O)C1)N1CC(=O)NC(=O)C1 [dexrazoxane]
- chronic cardiotoxicity in laboratory animals [1]: prevents chronic cardiotoxicity

Compound: COc1cccc2c1C(=O)c1c(O)c3c(c(O)c1C2=O)C[C@@](O)(C(=O)CO)C[C@@H]3O[C@H]1C[C@H](N)[C@H](O)[C@H](C)O1 [doxorubicin, 14-hydroxydaunomycin]
- late onset chronic cardiac events, share of patients [2]: 18-65%

Compound: Oc1ncnc2[nH]ncc12 [allopurinol, 1,5-dihydro4H-pyrazolol[3,4-d}pyrimidin-4-one monosodium salt, reference compound]
- immediate inhibition of superoxide radical production [3]: very little immediate inhibition

Compound: O=c1[nH]c(=O)c2c[nH]nc2[nH]1 [oxypurinol]
- immediate inhibition of superoxide radical production [3]: produces immediate inhibition
- cellular necrosis score, difference vs vehicle ([4]; histology of surviving mice sacrificed prior to dose 4 of doxorubicin): not statistically significant
- mean cellular swelling score ([4]; histology of surviving mice sacrificed prior to dose 4 of doxorubicin, 11 mice, p=0.004 vs vehicle): 1.8±0.4
- deaths following 3 doses of doxorubicin ([4]; oxypurinol 26 mg/dl in drinking water from 3 days before doxorubicin, doxorubicin 4 mg/kg/day IV twice a week, 15 mice in group): 3 deaths
- mortality vs vehicle group ([4]; oxypurinol Group 1 vs vehicle Group 2, doxorubicin-treated mice): highly significant decrease in mortality
